In paper PMC6382874, “Succinylation-dependent mitochondrial translocation of PKM2 promotes cell survival in response to nutritional stress” (Cell Death & Disease, 2019):
Where two headings read alike, the source gives them in different places.

What was measured:
H1299 cells = assay: cell viability test, H1299; type: cell-based; conditions: cell viability, 48 h, read-out: IC50 (H1299)
Experimental: We assessed the anti-tumor effects of compound 8 by evaluation of cancer cell viability. Compound 8 reduced cell viability with an IC50 of about 5 µM in MTT reduction assays in HCT116, MCF7, and H1299 cells (Table 2). […] To determine whether cancer cell death brought about by compound 8 is PKM2 dependent, PKM2 was knocked down in HCT116 cells using two different shRNA sequences that specifically targeted exon 10 without interfering with PKM1 expression. Compound 8 is an inhibitor which causes a loss of function of PKM2. If PKM2 is a specially targeted by compound 8, its knockdown should render cells more vulnerable to compound 8-mediated PKM2 inhibition since shRNA and compound 8 work synergistically by reducing the intracellular drug target concentration.
Cells were seeded in 96-well plates at 5000 cells/well in DMEM media overnight. Cells were treated with different concentrations of test compound for 48 h at 37 °C in 5% CO2. Cell viability was assayed with the MTS assay (Promega) and trypan blue staining according to the manufacturer’s instructions.

PKM2 [1] = target: T1, PKM2 (Homo sapiens, UniProt P14618); assay: fluorescent pyruvate kinase-lactate dehydrogenase (PK-LDH) coupled assay, PKM2; type: biochemical; design: His-tag (N); made in house; host or cells: Escherichia coli BL21; conditions: for selectivity for PKM2 over PKM1 and PKL: Supplementary Figure S4c
Experimental: A random screening of an in-house small molecule library (~1000 total molecules) was undertaken to identify new PKM2 modulators, which can block the interaction of PKM2 and VDAC3. The activity of these test compounds was assessed with a fluorescent PK-LDH coupled assay by a previously reported method (Supplementary Figure S4a)[37]. […] We undertook structural optimization by chemical modification. We designed new compounds utilizing a methyl group instead of the NP-1 chlorine moiety. Synthesis of target compounds was carried out according to the six-step protocol outlined in Supplementary Figure S4d, which was based on a previously described procedure[39],[40].
(§1) Human cDNA for PKM2, PKM1, and VDAC3 were separately cloned into a pET28a (+) and pGEX-4T-1 vector with an N-terminal His-tag and N-terminal GST-tag and purified from the Escherichia coli strain BL21 (Invitrogen) using Ni–agarose beads and GST agarose beads (Qiagen) as described previously. PKL was purchased from Sino Biological Inc. in China.
(§2) Pyruvate kinase activity was measured with a fluorescent pyruvate kinase–lactate dehydrogenase coupled assay as described previously. All compounds were tested in a kinetic mode by coupling the generation of pyruvate by pyruvate kinase to the depletion of NADH through lactate dehydrogenase. For PKM2, 40 μL of buffer (50 mM Tris–HCl, pH 7.5, 10 mM KCl, 5 mM MgCl2), 1 μL of compound and 5 μL of enzyme solution were dispensed into Corning black solid 96-well plates and incubated for 15 min. Totally, 55 μL of substrate mix (final concentration, 0.5 mM PEP, 4.0 mM ADP, 0.12 mM NADH, 0.25 mM FBP, and 1 unit LDH) were then added, and the plates were placed in a FlexStation3 (Molecular Devices), followed by determination of NADH fluorescence at 30 s exposure intervals for 3–6 min. Data were collected on a FlexStation3.
Target sequence in this assay (P14618 whole entry): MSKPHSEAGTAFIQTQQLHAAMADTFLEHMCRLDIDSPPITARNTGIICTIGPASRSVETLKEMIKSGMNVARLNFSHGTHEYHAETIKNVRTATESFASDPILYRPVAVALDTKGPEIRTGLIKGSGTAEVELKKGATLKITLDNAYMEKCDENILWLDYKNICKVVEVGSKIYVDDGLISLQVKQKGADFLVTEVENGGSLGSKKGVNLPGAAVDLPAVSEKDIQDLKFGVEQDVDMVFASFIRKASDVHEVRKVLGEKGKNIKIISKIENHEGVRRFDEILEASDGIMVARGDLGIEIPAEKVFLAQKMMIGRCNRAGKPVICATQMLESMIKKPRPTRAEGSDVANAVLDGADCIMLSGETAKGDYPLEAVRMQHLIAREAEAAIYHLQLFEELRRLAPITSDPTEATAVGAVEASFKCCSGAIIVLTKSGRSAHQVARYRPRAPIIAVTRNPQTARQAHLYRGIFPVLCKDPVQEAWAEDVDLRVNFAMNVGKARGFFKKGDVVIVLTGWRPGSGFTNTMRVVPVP

PKM2 [2] = target: T1, PKM2; assay: pyruvate kinase activity in lysate of treated HCT116 cells; type: cell-based; design: endogenous in cells; host or cells: HCT116; conditions: 6 h treatment, Fig. 5c
Experimental: HCT116 cells were seeded overnight into 6-well plates at 1,000,000 cells/well in DMEM media. Test compounds were added for 6 h. Cells were washed two times with ice-cold phosphate-buffered saline (PBS) and lysed in lysis buffer. Lysate was analyzed for pyruvate kinase activity as described above.
Target sequence in this assay (P14618 2-531 limits assumed): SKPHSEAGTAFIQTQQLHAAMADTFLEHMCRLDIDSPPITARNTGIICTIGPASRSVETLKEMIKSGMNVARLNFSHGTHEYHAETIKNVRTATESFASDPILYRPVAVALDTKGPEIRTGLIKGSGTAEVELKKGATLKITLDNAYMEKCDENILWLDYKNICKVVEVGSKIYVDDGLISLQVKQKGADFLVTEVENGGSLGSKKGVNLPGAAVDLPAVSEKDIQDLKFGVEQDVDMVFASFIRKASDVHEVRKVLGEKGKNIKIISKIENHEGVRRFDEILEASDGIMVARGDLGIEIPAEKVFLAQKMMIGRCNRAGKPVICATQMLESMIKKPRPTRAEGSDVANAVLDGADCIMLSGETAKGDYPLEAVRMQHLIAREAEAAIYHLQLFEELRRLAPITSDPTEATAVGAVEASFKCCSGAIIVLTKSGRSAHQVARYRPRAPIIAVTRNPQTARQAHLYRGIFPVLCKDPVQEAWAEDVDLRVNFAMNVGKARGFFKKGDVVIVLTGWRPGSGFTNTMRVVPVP

HCT116 xenografts = assay: HCT116 xenograft tumor growth in nude mice; type: in vivo, nude mice (BALB/C); conditions: 15mg/kg, intraperitoneal, once every two days
Experimental: All animal procedures were performed in accordance with guidelines approved by the Animal Experimentation Ethics Committee of Peking University. Female nude mice (BALB/C, 4–6 weeks old) were injected with 2.0 × 10^6 HCT116 cells subcutaneously in the armpit. Approximately, 10 days later, pairs of mice (N = 7) were injected with compound 8 or vehicle control. Intraperitoneal injection was performed in the mouse. The animals were injected once every two days. Tumor measurements were performed once every 2 days. Tumor volume was calculated using the following equation: V = L(S2)π/6, where L is the longer and S is the shorter of the two tumor dimensions.

PKM2 [3] = target: T1, PKM2; assay: binding to PKM2 measured by MicroCal iTC200; design: His-tag (N); made in house; host or cells: Escherichia coli BL21
Description: We tested modifications of target compounds for PKM2 inhibitory activity.
Fig. 5 Identification and characterization of PKM2 inhibitors. a PKM2 inhibitors. […] It prints only the data set name 'Data: pkm2_NDH', so the substance label is left empty. / Panel b, N: small print, 0.941 ±0.0712, digits uncertain / Panel b, K: small print, 8.63E4 ±3.63E4, the digits 8, 6 and 3 are uncertain / Panel b, ΔH: small print, -5962 ±675.9, the digits 5, 9 and 6 are uncertain / Panel b, ΔS: small print, 2.59, the digits 5 and 9 are uncertain
as §1
Target sequence in this assay (P14618 whole entry): as the sequence (P14618 whole entry) above

PKM1 = target: T2, PKM1 (Homo sapiens, UniProt P14618); assay: fluorescent PK-LDH coupled assay, PKM1; type: biochemical; conditions: recombinant enzyme, PK-LDH coupled assay; read-out: IC50 (PKM1)
T2 construct: His-tag (N); made in house; host or cells: Escherichia coli BL21
T2 sequence (P14618 1-531 isoform P14618-2): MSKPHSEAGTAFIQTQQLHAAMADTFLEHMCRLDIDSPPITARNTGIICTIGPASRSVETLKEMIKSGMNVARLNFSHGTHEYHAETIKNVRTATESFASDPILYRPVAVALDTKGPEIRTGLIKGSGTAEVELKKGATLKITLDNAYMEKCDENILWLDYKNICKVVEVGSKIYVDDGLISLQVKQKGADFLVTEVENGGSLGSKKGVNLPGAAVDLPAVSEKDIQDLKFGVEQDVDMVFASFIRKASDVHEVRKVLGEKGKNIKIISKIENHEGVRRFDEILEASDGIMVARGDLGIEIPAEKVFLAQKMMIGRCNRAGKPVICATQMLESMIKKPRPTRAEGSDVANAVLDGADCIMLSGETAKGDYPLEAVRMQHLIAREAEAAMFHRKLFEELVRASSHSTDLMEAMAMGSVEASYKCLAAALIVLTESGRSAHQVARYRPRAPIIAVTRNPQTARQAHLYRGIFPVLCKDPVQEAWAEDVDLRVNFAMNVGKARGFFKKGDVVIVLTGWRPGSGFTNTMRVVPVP
Experimental: as §1, §2

With `CCCN(CCC)P(N)(=O)OCC1=CC(=O)c2ccccc2C1=O` (centres unmarked) [Compound 8] the IC50 (H1299 cells; Homo sapiens, NCI-H1299, 48 h) was about 5 µM, the IC50 (H1299 cells) was 4.75 ± 1.15 µM and the “selectivity for PKM2 over PKM1 and PKL” value (PKM2 [1]) was “markedly inhibited PKM2, but inhibited PKM1 and PKL to much smaller extent”. The “selectivity for PKM2 over PKM1 and PKL” value (PKM2 [1]; listed as compound 8) was “PKM2 inhibitor of high selectivity”, the “IC50 on PKM2 relative to NP-1” value (PKM2 [1]; ratio of IC50 values of Table 1) was “about threefold lower than that of NP-1” and the IC50 (PKM2 [1]; recombinant enzyme, PK-LDH coupled assay, 15 min preincubation, read-out: IC50 (PKM2)) was 0.77 ± 0.3 µM. The “inhibition of PKM2 activity in cancer cells” value (PKM2 [2]) was “inhibits PKM2 activity in HCT116 cells in a dose dependent manner”, the “inhibition of PKM2 activity in cancer cells” value (PKM2 [2]; listed as compound 8) was “dose dependent” and the “colon cancer xenograft growth (tumor volume)” value (HCT116 xenografts) was “significantly reduced”. It also gave a Kd (PKM2 [3]) of about 11 µM and an IC50 (PKM1) of 10.5 ± 1.52 µM.
